# According to US20230340011A1 (Asteroid Therapeutics, priority 2022, published 2023):
# Tests used:
# LXRβ = LXRβ (Homo sapiens (Human), UniProt P55055); assay: In vitro assay LXRβ: PathHunter NHR CHO cells, LXRβ / Steroid Receptor Co-activator Peptide enzyme fragment complementation; type: cell-based; settings: PathHunter NHR CHO cells, full-length human LXRβ and SRCP, chemiluminescent signal; read-out: LXRβ PPI
# Procedure, shortened: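 Enzyme fragment complementation read-out: CHO cells stably expressing ProLink-tagged full-length human LXRβ plus nuclear enzyme acceptor–SRCP fusion, seeded and held overnight at 37° C. Medium with charcoal-dextran filtered serum; final vehicle 1%. Chemiluminescence measured after signal generation.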
# SREBP-2 = SREBP-2 (Homo sapiens (Human), UniProt Q12772); assay: In vitro assay SREBP-2: PathHunter U2OS SREBP-2 Nuclear Translocation Cell Line, U18666A-stimulated; type: cell-based; settings: PathHunter U2OS SREBP-2 nuclear translocation cells, U18666A 10 μM, overnight (16 hours)
# Chain of LXRβ (P55055 whole entry, the tested form may be a part): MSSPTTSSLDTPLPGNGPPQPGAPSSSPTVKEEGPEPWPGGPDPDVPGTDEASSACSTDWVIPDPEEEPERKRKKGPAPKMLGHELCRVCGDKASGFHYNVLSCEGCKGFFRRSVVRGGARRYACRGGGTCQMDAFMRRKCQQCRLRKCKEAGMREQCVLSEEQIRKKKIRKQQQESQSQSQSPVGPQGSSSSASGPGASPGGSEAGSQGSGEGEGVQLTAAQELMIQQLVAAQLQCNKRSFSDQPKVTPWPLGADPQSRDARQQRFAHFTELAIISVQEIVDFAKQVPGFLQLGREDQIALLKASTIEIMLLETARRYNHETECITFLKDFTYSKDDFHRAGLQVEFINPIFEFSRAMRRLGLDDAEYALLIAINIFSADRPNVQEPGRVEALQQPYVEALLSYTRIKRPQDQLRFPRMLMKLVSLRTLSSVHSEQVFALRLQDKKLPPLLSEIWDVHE
Structure (SMILES),EC50 (LXRβ) [µM],IC50 (SREBP-2) [µM]
"C[C@H](CCC(=O)N1CCN(C(=O)C2CCCC2)CC1)[C@H]1CC[C@H]2[C@@H]3CC=C4C[C@@H](O)CC[C@]4(C)[C@H]3CC[C@]12C [Example 515, (R)-1-(4-(cyclopentanecarbonyl)piperazin-1-yl)-4-((3S,8S,9S,10R,13R,14S,17R)-3-hydroxy-10,13-dimethyl-2,3,4,7,8,9,10,11,12,13,14,15,16,17-tetradecahydro-1H-cyclopenta[a]phenanthren-17-yl)pentan-1-one]",> 10,< 0.25
"CC(=O)NC1CCN(C(=O)CC[C@@H](C)[C@H]2CC[C@H]3[C@@H]4CC=C5C[C@@H](O)CC[C@]5(C)[C@H]4CC[C@]23C)CC1 [Example 320, N-(1-((R)-4-((3S,8S,9S,10R,13R,14S,17R)-3-hydroxy-10,13-dimethyl-2,3,4,7,8,9,10,11,12,13,14,15,16,17-tetradecahydro-1H-cyclopenta[a]phenanthren-17-yl)pentanoyl)piperidin-4-yl)acetamide]",> 10,< 0.25
"COc1cc(N2CCN(C(=O)CC[C@@H](C)[C@H]3CC[C@H]4[C@@H]5CC=C6C[C@@H](O)CC[C@]6(C)[C@H]5CC[C@]34C)C[C@@H]2C)ncn1 [Example 646, (R)-4-((3S,8S,9S,10R,13R,14S,17R)-3-hydroxy-10,13-dimethyl-2,3,4,7,8,9,10,11,12,13,14,15,16,17-tetradecahydro-1H-cyclopenta[a]phenanthren-17-yl)-1-((S)-4-(6-methoxypyrimidin-4-yl)-3-methylpiperazin-1-yl)pentan-1-one]",> 10,< 0.25
"C[C@H](CCC(=O)N1CCN(c2ccnc(O)n2)CC1)[C@H]1CC[C@H]2[C@@H]3CC=C4C[C@@H](O)CC[C@]4(C)[C@H]3CC[C@]12C [Example 559, (R)-4-((3S,8S,9S,10R,13R,14S,17R)-3-hydroxy-10,13-dimethyl-2,3,4,7,8,9,10,11,12,13,14,15,16,17-tetradecahydro-1H-cyclopenta[a]phenanthren-17-yl)-1-(4-(2-hydroxypyrimidin-4-yl)piperazin-1-yl)pentan-1-one]",> 10,< 0.25
"C[C@H](CCC(=O)N1CC[C@@H](C(O)(C(F)(F)F)C(F)(F)F)C1)[C@H]1CC[C@H]2[C@@H]3CC=C4C[C@@H](O)CC[C@]4(C)[C@H]3CC[C@]12C [Example 98, (R)-1-((R)-3-(1,1,1,3,3,3-hexafluoro-2-hydroxypropan-2-yl)pyrrolidin-1-yl)-4-((3S,8S,9S,10R,13R,14S,17R)-3-hydroxy-10,13-dimethyl-2,3,4,7,8,9,10,11,12,13,14,15,16,17-tetradecahydro-1H-cyclopenta[a]phenanthren-17-yl)pentan-1-one]",> 10,< 0.25
"C[C@H](C(=O)NCc1ccncc1)[C@H]1CC[C@H]2[C@@H]3CC=C4C[C@@H](O)CC[C@]4(C)[C@H]3CC[C@]12C [Example 599, (S)-2-((3S,8S,9S,10R,13S,14S,17R)-3-hydroxy-10,13-dimethyl-2,3,4,7,8,9,10,11,12,13,14,15,16,17-tetradecahydro-1H-cyclopenta[a]phenanthren-17-yl)-N-(pyridin-4-ylmethyl)propanamide]",> 10,1 to 10
C[C@H](CCC(=O)N1CCN(C(=O)OC2CC2)C[C@@H]1C)[C@H]1CC[C@H]2[C@@H]3CC=C4C[C@@H](O)CC[C@]4(C)[C@H]3CC[C@]12C [Example 584],> 10,< 0.25
"COc1cncc(N2CCN(C(=O)CC[C@@H](C)[C@H]3CC[C@H]4[C@@H]5CC=C6C[C@@H](O)CC[C@]6(C)[C@H]5CC[C@]34C)CC2)c1 [Example 660, (R)-4-((3S,8S,9S,10R,13R,14S,17R)-3-hydroxy-10,13-dimethyl-2,3,4,7,8,9,10,11,12,13,14,15,16,17-tetradecahydro-1H-cyclopenta[a]phenanthren-17-yl)-1-(4-(5-methoxypyridin-3-yl)piperazin-1-yl)pentan-1-one]",> 10,< 0.25
"C[C@H](CCc1ncco1)[C@H]1CC[C@H]2[C@@H]3CC=C4C[C@@H](O)CC[C@]4(C)[C@H]3CC[C@]12C [Example 137, (3S,8S,9S,10R,13R,14S,17R)-10,13-dimethyl-17-((R)-4-(oxazol-2-yl)butan-2-yl)-2,3,4,7,8,9,10,11,12,13,14,15,16,17-tetradecahydro-1H-cyclopenta[a]phenanthren-3-ol]",1 to 10,0.25 to 1
"C[C@H](CCC(=O)N1CCN(c2ccncn2)C[C@@H]1C)[C@H]1CC[C@H]2[C@@H]3CC=C4C[C@@H](O)CC[C@]4(C)[C@H]3CC[C@]12C [Example 588, (4R)-4-[(1R,3aS,3bS,7S,9aR,9bS,11aR)-7-hydroxy-9a,11a-dimethyl-1H,2H,3H,3aH,3bH,4H,6H,7H,8H,9H,9aH,9bH,10H,11H,11aH-cyclopenta[a]phenanthren-1-yl]-1-[(2S)-2-methyl-4-(pyrimidin-4-yl)piperazin-1-yl]pentan-1-one]",> 10,< 0.25
"Cc1nn(C)cc1N1CCN(C(=O)CC[C@@H](C)[C@H]2CC[C@H]3[C@@H]4CC=C5C[C@@H](O)CC[C@]5(C)[C@H]4CC[C@]23C)CC1 [Example 604, (4R)-4-[(1R,3aS,3bS,7S,9aR,9bS,11aR)-7-hydroxy-9a,11a-dimethyl-1H,2H,3H,3aH,3bH,4H,6H,7H,8H,9H,9aH,9bH,10H,11H,11aH-cyclopenta[a]phenanthren-1-yl]-1-[4-(1,3-dimethyl-1H-pyrazol-4-yl)piperazin-1-yl]pentan-1-one]",> 10,< 0.25
"C[C@H](CCC(=O)N1CCN(C(C)(C)C)CC1)[C@H]1CC[C@H]2[C@@H]3CC=C4C[C@@H](O)CC[C@]4(C)[C@H]3CC[C@]12C [Example 557, (4R)-4-[(1R,3aS,3bS,7S,9aR,9bS,11aR)-7-hydroxy-9a,11a-dimethyl-1H,2H,3H,3aH,3bH,4H,6H,7H,8H,9H,9aH,9bH,10H,11H,11aH-cyclopenta[a]phenanthren-1-yl]-1-(4-tert-butylpiperazin-1-yl)pentan-1-one]",> 10,0.25 to 1
"C[C@H](CCC(=O)N1CCN(C(=O)N(C)C)CC1)[C@H]1CC[C@H]2[C@@H]3CC=C4C[C@@H](O)CC[C@]4(C)[C@H]3CC[C@]12C [Example 339, 4-[(4R)-4-[(1R,3aS,3bS,7S,9aR,9bS,11aR)-7-hydroxy-9a,11a-dimethyl-1H,2H,3H,3aH,3bH,4H,6H,7H,8H,9H,9aH,9bH,10H,11H,11aH-cyclopenta[a]phenanthren-1-yl]pentanoyl]-N,N-dimethylpiperazine-1-carboxamide]",> 10,< 0.25
"C[C@@H]1CCCN(C(=O)CC[C@@H](C)[C@H]2CC[C@H]3[C@@H]4CC=C5C[C@@H](O)CC[C@]5(C)[C@H]4CC[C@]23C)C1 [Example 111, (R)-4-((3S,8S,9S,10R,13R,14S,17R)-3-hydroxy-10,13-dimethyl-2,3,4,7,8,9,10,11,12,13,14,15,16,17-tetradecahydro-1H-cyclopenta[a]phenanthren-17-yl)-1-((R)-3-methylpiperidin-1-yl) pentan-1-one]",0.25 to 1,< 0.25
